According to patent US8148426B2, “Bis(thio-hydrazide amides) for increasing Hsp70 expression” (Synta Pharmaceuticals Corp., priority 2004, dated 2012):
Values joined by “and” are separate entries in the source; they are usually repeats but may differ in a detail not shown here. Identical values can stand only once. Like-named read-outs stand apart in the source and are kept apart here. One block for each compound: values may come before it.

Key:
in vivo = test: in vivo
Method: The compounds were prepared in two formulations: Formulation A contained 10% DMSO, and 18% Cremophor RH40 in water; Formulation B contained ethanol:Cremophor EL in a 1:1 ratio.
Blood samples were taken at 30 min, 1, 2, and 4 hr after injection. Brain tissue samples were taken after blood collected at 30 min, where one mouse from each group was selected and its brain was removed for analysis.
Blood samples were combined with 3-5 mg solid DTT, after which the sample was vortexed and centrifuged at 6,000 rpm×10 min. A 50 μL aliqot of plasma was taken, followed by the addition of 50 μL 1% DTT and 150 μL CH3CN (0.1% TFA). The mixture was vortexed and centrifuged at 10,000 rpm×5 min. The 150 μL supernatant was diluted with 150 μL water. A weighed tissue sample was homogenized in PBS (1:1), then combined with 1% DTT (1:1), followed by the addition of CH3CN containing 0.1% TFA (3:1). The mixture was vortexed and centrifuged at 10,000 rpm×5 min. The 150 μL supernatant was diluted with 150 μL water. 100 μL prepared samples were subjected to HPLC, using 5-95% CH3CN (0.1% trifluoroacetic acid) as the eluent.

Hsp70 [1] = test: Plasma Hsp70 levels by ELISA in non-tumor-bearing mice (Example 3); assay type: in vivo; settings: normal (non-tumor bearing) mice; 25 mg/kg intravenously 3 times a week; compared to vehicle
Method: Non-tumor-bearing mice were with either vehicle alone or compound (1). The vehicle employed was 10% DMSO, 18% Cremophor RH40. […] Plasma samples were prepared from tail bleed. Plasma Hsp70 levels were determined by Enzyme-Linked Immunosorbent Assay (ELISA). Plasma Hsp70 was measured by a sandwich ELISA kit (Stressgen Bioreagents Victoria, British Columbia, CANADA) according to a modified protocol in house. In brief, Hsp70 in plasma specimens and serial concentrations of Hsp70 standard were captured onto 96-well plate on which anti-Hsp70 antibody was coated. Then captured Hsp70 was detected with a biotinylated anti-Hsp70 antibody followed by incubation with europium-conjugated streptavidin. After each incubation unbound materials were removed by washing. Finally, antibody-Hsp70 complex was measured by time resolved fluorometry of europium. Concentration of Hsp70 was calculated from a standard curve.

Hsp70 [2] = test: Phase I trial, Hsp70 in plasma before and after treatment (Example 11); assay type: in vivo, human
Method: Plasma Hsp70 was measured by a sandwich ELISA kit (Stressgen Bioreagents Victoria, British Columbia, CANADA) according to a modified protocol in house. In brief, Hsp70 in plasma specimens and serial concentrations of Hsp70 standard were captured onto 96-well plate on which anti-Hsp70 antibody was coated. Then captured Hsp70 was detected with a biotinylated anti-Hsp70 antibody followed by incubation with europium-conjugated streptavidin. After each incubation unbound materials were removed by washing. Finally, antibody-Hsp70 complex was measured by time resolved fluorometry of europium. Concentration of Hsp70 was calculated from a standard curve.

K562/eGFP = test: NK cell cytotoxic activity of patients' PBMC (Example 12); assay type: in vivo, human
Text: The following procedure can be employed to assay NK cell activity in a subject. The procedure is adapted from Kantakamalakul W, Jaroenpool J, Pattanapanyasat K. A novel enhanced green fluorescent protein (EGFP)-K562 flow cytometric method for measuring natural killer (NK) cell cytotoxic activity. J Immunol Methods. 2003 Jan. 15; 272:189-197, the entire teachings of which are incorporated herein by reference.
K562 cells were transduced with retroviral vector which encode green fluorescent protein (eGFP). Stable cell line was selected with antibiotic, G418.
The subject's peripheral blood mononuclear cells (PBMCs) were prepared by clinical study sites and received in BD Vacutainer Cell Preparation Tube with sodium heparin (Product Number: 362753, Becton Dickinson, Franklin Lakes, N.J.).
Effector cells alone and target cells alone were used as controls. All tubes were incubated at 37° C. with 5% CO2 for about 3.5 hr. Ten microliters of propidium iodide (PI) at a concentration of 1 mg/mL was added t each tube including effector and target control tubes and then incubated at room temperature for 15 min.
Cytotoxic activity was analyzed with a FACSCalibur flow cytometer (Becton Dickinson). Linear amplification of the forward and side scatter (FSC/SSC) signals, as well as logarithmic amplification of eGFP and PI emission in green and red fluorescence were obtained. […]

[3] = Phase 1/2 study, safety (Example 12); assay type: in vivo, human
Method: Phase 1 (safety/PK/MTD (maximum tolerated dose) was followed by a Phase 2 randomized two arm portion. Two dose levels were evaluated in Phase 1.
Dosing was IV q 3 weeks for up to 6 cycles in the absence of dose-limiting toxicity or progression. […] The phase 2 primary endpoint is time to progression, with secondary endpoints of response rate, survival, and quality of life. Study pharmacodynamic parameters include NK cell activity and Hsp70 level.

[4] = Tissue distribution in SW female mice, intravenous (Example 1); assay type: in vivo; settings: mouse
Method: Plasma samples were prepared by combining 50 μL plasma+50 μL 1% dithiothreitol (DTT)+150 μL CH3CN (0.1% HCOOH), centrifuged at 10,000 rpm×5 min; 150 μL supernatant+90 μL H2O. Tissue samples were prepared by homogenizing a weighed tissue sample in phosphor-buffered saline (PBS, ×1)+1% DTT (×1)+CH3CN (0.1% HCOOH) (×3)), centrifuged at 10,000 rpm×5 min; 150 μL supernatant+90 μL H2O. […] The running time was 15 min.

[5] = Phase I trial, plasma pharmacokinetics by LC/MS (Example 11); settings: co-administered with Compound (1) 44-[…]^2
Method: Pharmacokinetic (PK) studies were performed during cycle 1 using liquid chromatography/mass spectrometry (LC/MS) to measure both compounds in plasma. Heat shock protein 70 (Hsp70) was measured in plasma before and after treatment.

[6] = in vivo

Structure (SMILES): CN(NC(=O)CC(=O)NN(C)C(=S)c1ccccc1)C(=S)c1ccccc1 [Compound (1)]
half-life (in vivo; female, SW, mouse, in vivo, po, 100 mg/kg): 2.3 h
plasma levels of Hsp70 (Hsp70 [1]): increase
Hsp70 concentrations, change (Hsp70 [2]; 175 mg/m2 Compound (1) + paclitaxel 175 mg/m2, two patients): more than doubled
percent increase in Hsp70 concentrations (Hsp70 [2]; 263 mg/m2 Compound (1) + paclitaxel 175 mg/m2, a third patient): more than 250%
Hsp70 concentrations, change (Hsp70 [2]; 263 mg/m2 Compound (1) + paclitaxel 175 mg/m2, two patients): roughly doubled
percent increase in Hsp70 concentrations (Hsp70 [2]; 350 mg/m2 Compound (1) + paclitaxel 175 mg/m2, all patients): more than 200%
percent increase in Hsp70 concentrations (Hsp70 [2]; 350 mg/m2 Compound (1) + paclitaxel 175 mg/m2, two patients): ≤ 500%
percent increase in Hsp70 concentrations (Hsp70 [2]; 438 mg/m2 Compound (1) + paclitaxel 175 mg/m2, another patient): ≤ 500%
Hsp70 concentrations, change (Hsp70 [2]; 438 mg/m2 Compound (1) + paclitaxel 175 mg/m2, two patients): roughly doubled
induction of Hsp70 protein in plasma, dose dependence (Hsp70 [2]; combined with paclitaxel): dose dependent
patients with evaluable samples showing increased NK cell activity (K562/eGFP; assayed 7 days after the second dose, with carboplatin and paclitaxel): Seven of the 8
% tumor cell lysis post-dose (K562/eGFP; per subject, Effector/Target 80:1, dose cells empty (subjects 9-11)): 3.8% and 45.98%
adverse effects (AEs), usually Grade 1-2 ([3]; Phase 1, 16 patients, with carboplatin and paclitaxel): arthralgia and myalgia, peripheral neuropathy, rash, nausea, and vomiting, fatigue, alopecia, edema, dehydration, constipation, and decreased blood counts
tolerability of the carboplatin:paclitaxel:Compound (1) combination ([3]; at the dose levels studied): well tolerated

per os AUC as % of the intravenous value at 4 hours (in vivo; per os 100 mg/kg formulation B vs intravenous 25 mg/kg formulation A, AUC 0-4 hours): about 30%
Structure (SMILES): COc1ccc(OC)c(C(=S)N(C)NC(=O)C(C)C(=O)NN(C)C(=S)c2cc(OC)ccc2OC)c1 [Compound (9)]

Kp at 30 min ([4]; brain, intravenous, 25 mg/kg, read-out: brain concentration as % of plasma concentration): 0.19
Kp at 30 min ([4]; brain, iv, first experiment, 25 mg/kg intravenously, 30 min after injection, read-out: brain concentration as % of the plasma concentration): ~0.07
concentration at 30 min ([4]; brain, iv, first experiment, 25 mg/kg intravenously, 30 min after injection, read-out: concentration in brain): ~2 µM
concentration at 30 min ([4]; kidney, iv, first experiment, 25 mg/kg intravenously, 30 min after injection, read-out: concentration in kidney): 50 µM
concentration at 30 min ([4]; liver, iv, first experiment, 25 mg/kg intravenously, 30 min after injection, read-out: concentration in liver): 33 µM
concentration at 30 min ([4]; spleen, iv, first experiment, 25 mg/kg intravenously, 30 min after injection, read-out: concentration in spleen): 25 µM
Structure (SMILES): CN(NC(=O)CC(=O)NN(C)C(=S)C1CC1)C(=S)C1CC1 [Compound (18)]

paclitaxel Vss, dependence on the Compound (1) dose [5]: increase
paclitaxel terminal phase half-life, dependence on the Compound (1) dose [5]: without affecting
Structure (SMILES): CC(=O)O[C@H]1C(=O)[C@@]2(C)[C@H]([C@H](OC(=O)c3ccccc3)[C@]3(O)C[C@H](OC(=O)[C@H](O)[C@@H](NC(=O)c4ccccc4)c4ccccc4)C(C)=C1C3(C)C)[C@]1(OC(C)=O)CO[C@@H]1C[C@@H]2O [Paclitaxel, paclitaxel]
paclitaxel clearance, dependence on the Compound (1) dose [5]: significant trend toward decreasing clearance
dose limiting toxicities [6]: neutropenia, arthralgia, and febrile neutropenia with mucositis
